Assay results as given in patent US20150368209A1, “4-Pyrimidinylamino-benzenesulfonamide derivatives and their use for the inhibition of polo-like kinase 1 (PLK1) for the treatment of cancer and their use for the treatment of bacterial infections” (VICHEM CHEMIE KUTATÓ KFT., priority 2013, published 2015).
pIC50: −log10 of the molar value. Values after ≈ are worked out from the molar mass of the structure shown.

How the values were obtained:
human PLK1 kinase domain = molecular target: T1, human PLK1 kinase domain (Homo sapiens, UniProt P53350); assay: In vitro PLK1 assay (IMAP fluorescence polarization kinase assay); format: biochemical; settings: for pIC50: 30 nM PLK1 kinase domain, 16 μM ATP (=Kmapp), 90 min at room temperature; for inhibition at 10 µM: at 10 uM compound
T1 construct: Each reaction consisted of 30 nM enzyme PLK1 kinase domain
Method: The activity of the compounds described in the present invention was determined using a commercially available IMAP Screening Express Assay Kit (Molecular devices).
This method measures the change in the fluorescent polarization of a fluorescently-labeled peptide due to the effect of human PLK1 kinase domain on it. PLK1 kinase assays were performed in low protein binding 384-well plates (Corning 3676). Test compounds were diluted in 100% DMSO to 5 mM stock concentration, the further dilutions were made in H2O or 100% DMSO to desirable concentrations.
Each reaction consisted of 30 nM enzyme PLK1 kinase domain, 400 nM 5TAMRA-RGSFNDTLDFD-NH2 (Genecust Europe), 16 μM ATP (=Kmapp, Sigma-Aldrich) and kinase buffer: 20 mM HEPES pH 7.5 (Sigma-Aldrich), 1 mM DTT (Sigma-Aldrich), 10 mM MgCl2 (Sigma-Aldrich), 0.01% Triton X-100 (Sigma-Aldrich).
For each reaction, 4 or 6 μl containing 5TAMRA-RGSFNDTLDFD-NH2, ATP and kinase buffer were combined with 2 μl diluted compound in H2O or 0.04 μl compound in 100% DMSO. The kinase reaction was started by the addition of 2 μl diluted enzyme. The reaction was allowed to run for 90 minutes at room temperature. The reaction was stopped by adding 15 μl IMAP beads (1:1200 beads in progressive (40% buffer A, 60% buffer B) 1× buffer). After an additional 60 minutes, fluorescent polarization (Ex: 550-10 nm, Em: 590-10 nm, Dich: 561 nm) was measured using Analyst GT multimode reader (Molecular Devices).

M. tuberculosis H37Rv = assay: Resazurin reduction microtiter assay (REMA), growth inhibition and MIC determination; format: cell-based; settings: Mycobacterium tuberculosis, 168 h, 7 days at 37° C.; for inhibition at 20 µM: at 20 uM compound, read-out: H37Rv inh % at 20 uM; for MIC: two-fold serial dilution from 100 to 0.16 μM, read-out: H37Rv MIC90

T1 sequence (P53350 53-305 limits assumed): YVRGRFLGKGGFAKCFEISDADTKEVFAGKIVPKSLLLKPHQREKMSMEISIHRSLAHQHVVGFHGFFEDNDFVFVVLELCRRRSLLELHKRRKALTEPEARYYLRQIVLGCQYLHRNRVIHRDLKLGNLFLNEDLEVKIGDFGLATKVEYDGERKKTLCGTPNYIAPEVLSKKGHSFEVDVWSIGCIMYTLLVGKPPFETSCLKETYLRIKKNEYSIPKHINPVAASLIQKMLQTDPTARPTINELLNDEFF

## COc1cccc(F)c1-c1cc(Nc2ccc(S(=O)(=O)Nc3onc(C)c3C)cc2)ncn1 [Example 12, N-(3,4-Dimethyl-isoxazol-5-yl)-4-[6-(2-fluoro-6-methoxy-phenyl)-pyrimidin-4-ylamino]-benzenesulfonamide]
Human PLK1 kinase domain
  pIC50: 5.84
  inhibition at 10 µM: 83.3%
HepG2
  HepG2 TD50: 19.6
M. tuberculosis H37Rv
  inhibition at 20 µM: 102%
  MIC: 1.13 µM (≈ 0.531 µg/mL)

## COc1ccc(-c2cc(Nc3ccc(S(=O)(=O)Nc4onc(C)c4C)cc3)ncn2)c(OC)c1 [Example 37, 4-[6-(2,4-Dimethoxy-phenyl)-pyrimidin-4-ylamino]-N-(3,4-dimethyl-isoxazol-5-yl)-benzenesulfonamide]
Human PLK1 kinase domain
  pIC50: 6.02
  inhibition at 10 µM: 70%
HepG2
  HepG2 TD50: 16.1
M. tuberculosis H37Rv
  inhibition at 20 µM: 101%
  MIC: 13.7 µM (≈ 6.57 µg/mL)

## COc1cccc(Cl)c1-c1cc(Nc2ccc(S(=O)(=O)Nc3onc(C)c3C)cc2)ncn1 [Example 15, 4-[6-(2-Chloro-6-methoxy-phenyl)-pyrimidin-4-ylamino]-N-(3,4-dimethyl-isoxazol-5-yl)-benzenesulfonamide]
Human PLK1 kinase domain
  inhibition at 10 µM: 96.4%
HepG2
  HepG2 TD50: 0.0458
M. tuberculosis H37Rv
  inhibition at 20 µM: 102%
  MIC: 0.292 µM (≈ 0.142 µg/mL)

## Cc1noc(NS(=O)(=O)c2ccc(Nc3cc(-c4cc(Cl)ccc4Cl)ncn3)cc2)c1C [Example 16, 4-[6-(2,5-Dichloro-phenyl)-pyrimidin-4-ylamino]-N-(3,4-dimethyl-isoxazol-5-yl)-benzenesulfonamide]
Human PLK1 kinase domain
  pIC50: 6.22
  inhibition at 10 µM: 7.9%
HepG2
  HepG2 TD50: 2.37
M. tuberculosis H37Rv
  inhibition at 20 µM: 100%
  MIC: 11.8 µM (≈ 5.76 µg/mL)

## COc1ccc(C)cc1-c1cc(Nc2ccc(S(=O)(=O)Nc3onc(C)c3C)cc2)ncn1 [Example 9, N-(3,4-Dimethyl-isoxazol-5-yl)-4-[6-(2-methoxy-5-methyl-phenyl)-pyrimidin-4-ylamino]-benzenesulfonamide]
Human PLK1 kinase domain
  pIC50: 6.09
  inhibition at 10 µM: 67.6%
HepG2
  HepG2 TD50: 19.6
M. tuberculosis H37Rv
  inhibition at 20 µM: 101%
  MIC: 19.3 µM (≈ 8.98 µg/mL)

## COc1ccc(C(C)(C)C)cc1-c1cc(Nc2ccc(S(=O)(=O)Nc3onc(C)c3C)cc2)ncn1 [Example 6, 4-[6-(5-tert-Butyl-2-methoxy-phenyl)-pyrimidin-4-ylamino]-N-(3,4-dimethyl-isoxazol-5-yl)-benzenesulfonamide]
Human PLK1 kinase domain
  inhibition at 10 µM: 26.1%
HepG2
  HepG2 TD50: 19.6
M. tuberculosis H37Rv
  inhibition at 20 µM: 94.1%
  MIC: 19.6 µM (≈ 9.95 µg/mL)

## COc1cccc(OC)c1-c1cc(Nc2ccc(S(=O)(=O)Nc3onc(C)c3C)cc2)ncn1 [Example 22, 4-[6-(2,6-Dimethoxy-phenyl)-pyrimidin-4-ylamino]-N-(3,4-dimethyl-isoxazol-5-yl)-benzenesulfonamide]
Human PLK1 kinase domain
  inhibition at 10 µM: 10.1%
HepG2
  HepG2 TD50: 9.819
M. tuberculosis H37Rv
  inhibition at 20 µM: 102%
  MIC: 7.24 µM (≈ 3.49 µg/mL)

## COc1ccccc1-c1cc(Nc2ccc(S(=O)(=O)NC(=O)C(C)C(C)=O)cc2)ncn1 (stereo not drawn) [Example 41, 4-[6-(2-Methoxy-phenyl)-pyrimidin-4-ylamino]-N-(2-methyl-3-oxo-butyryl)-benzenesulfonamide]
Human PLK1 kinase domain
  inhibition at 10 µM: 59%
M. tuberculosis H37Rv
  inhibition at 20 µM: -4.8%

## Cc1noc(NS(=O)(=O)c2ccc(Nc3cc(-c4ccc5c(c4)OCO5)ncn3)cc2)c1C [Example 11, 4-(6-Benzo[1,3]dioxol-5-yl-pyrimidin-4-ylamino)-N-(3,4-dimethyl-isoxazol-5-yl)-benzenesulfonamide]
Human PLK1 kinase domain
  pIC50: 6.05
  inhibition at 10 µM: 74.4%
M. tuberculosis H37Rv
  inhibition at 20 µM: -21.5%

## COc1ccc(C(C)C)cc1-c1cc(Nc2ccc(S(=O)(=O)Nc3onc(C)c3C)cc2)ncn1 [Example 5, N-(3,4-Dimethyl-isoxazol-5-yl)-4-[6-(5-isopropyl-2-methoxy-phenyl)-pyrimidin-4-ylamino]-benzenesulfonamide]
Human PLK1 kinase domain
  inhibition at 10 µM: 43.2%
M. tuberculosis H37Rv
  inhibition at 20 µM: 99.2%
  MIC: 16 µM (≈ 7.9 µg/mL)

## COc1cccc(-c2cc(Nc3ccc(S(=O)(=O)Nc4onc(C)c4C)cc3)ncn2)c1OC [Example 36, 4-[6-(2,3-Dimethoxy-phenyl)-pyrimidin-4-ylamino]-N-(3,4-dimethyl-isoxazol-5-yl)-benzenesulfonamide]
Human PLK1 kinase domain
  pIC50: 5.66
  inhibition at 10 µM: 77.3%
M. tuberculosis H37Rv
  inhibition at 20 µM: -9.8%

## Cc1noc(NS(=O)(=O)c2ccc(Nc3cc(-c4ccccc4OC(F)(F)F)ncn3)cc2)c1C [Example 2, N-(3,4-Dimethyl-isoxazol-5-yl)-4-[6-(2-trifluoromethoxy-phenyl)-pyrimidin-4-ylamino]-benzenesulfonamide]
Human PLK1 kinase domain
  pIC50: 6.16
  inhibition at 10 µM: 69%
M. tuberculosis H37Rv
  inhibition at 20 µM: 102%
  MIC: 9.71 µM (≈ 4.91 µg/mL)

## COc1cccc(-c2cc(Nc3ccc(S(=O)(=O)Nc4onc(C)c4C)cc3)ncn2)c1 [Example 35, N-(3,4-Dimethyl-isoxazol-5-yl)-4-[6-(3-methoxy-phenyl)-pyrimidin-4-ylamino]-benzenesulfonamide]
Human PLK1 kinase domain
  pIC50: 5.60
  inhibition at 10 µM: 77.1%
M. tuberculosis H37Rv
  inhibition at 20 µM: -8.1%

## Cc1noc(NS(=O)(=O)c2ccc(Nc3cc(-c4ccc(F)cc4OC(C)C)ncn3)cc2)c1C [Example 17, N-(3,4-Dimethyl-isoxazol-5-yl)-4-[6-(4-fluoro-2-isopropoxy-phenyl)-pyrimidin-4-ylamino]-benzenesulfonamide]
Human PLK1 kinase domain
  pIC50: 6.75
  inhibition at 10 µM: 68.8%
M. tuberculosis H37Rv
  inhibition at 20 µM: -1.4%

## COc1ccc(OC)c(-c2cc(Nc3ccc(S(=O)(=O)Nc4onc(C)c4C)cc3)ncn2)c1 [Example 7, 4-[6-(2,5-Dimethoxy-phenyl)-pyrimidin-4-ylamino]-N-(3,4-dimethyl-isoxazol-5-yl)-benzenesulfonamide]
Human PLK1 kinase domain
  pIC50: 6.72
  inhibition at 10 µM: 59.6%
M. tuberculosis H37Rv
  inhibition at 20 µM: 58.2%

## COc1ccccc1-c1cc(Nc2ccc(S(=O)(=O)Nc3cc(C)on3)cc2)ncn1 [Example 33, 4-[6-(2-Methoxy-phenyl)-pyrimidin-4-ylamino]-N-(5-methyl-isoxazol-3-yl)-benzenesulfonamide]
Human PLK1 kinase domain
  inhibition at 10 µM: 57.8%
M. tuberculosis H37Rv
  inhibition at 20 µM: -30.6%

## Cc1noc(NS(=O)(=O)c2ccc(Nc3cc(-c4c(F)cccc4OC(C)C)ncn3)cc2)c1C [Example 23, N-(3,4-Dimethyl-isoxazol-5-yl)-4-[6-(2-fluoro-6-isopropoxy-phenyl)-pyrimidin-4-ylamino]-benzenesulfonamide]
Human PLK1 kinase domain
  pIC50: 5.75
  inhibition at 10 µM: 70.4%
M. tuberculosis H37Rv
  inhibition at 20 µM: 102%
  MIC: 10.2 µM (≈ 5.1 µg/mL)

## Cc1noc(NS(=O)(=O)c2ccc(Nc3cc(-c4cccc(C#N)c4)ncn3)cc2)c1C [Example 34, 4-[6-(3-Cyano-phenyl)-pyrimidin-4-ylamino]-N-(3,4-dimethyl-isoxazol-5-yl)-benzenesulfonamide]
Human PLK1 kinase domain
  inhibition at 10 µM: 58.5%
M. tuberculosis H37Rv
  inhibition at 20 µM: -4.3%

## Cc1noc(NS(=O)(=O)c2ccc(Nc3cc(-c4ccccc4OC(C)C)ncn3)cc2)c1C [Example 13, N-(3,4-Dimethyl-isoxazol-5-yl)-4-[6-(2-isopropoxy-phenyl)-pyrimidin-4-ylamino]-benzenesulfonamide]
Human PLK1 kinase domain
  pIC50: 5.74
  inhibition at 10 µM: 88.6%
M. tuberculosis H37Rv
  inhibition at 20 µM: -23%

## COc1cc(Cl)ccc1-c1cc(Nc2ccc(S(=O)(=O)Nc3onc(C)c3C)cc2)ncn1 [Example 28, 4-[6-(4-Chloro-2-methoxy-phenyl)-pyrimidin-4-ylamino]-N-(3,4-dimethyl-isoxazol-5-yl)-benzenesulfonamide]
Human PLK1 kinase domain
  pIC50: 7.23
  inhibition at 10 µM: 61.9%
M. tuberculosis H37Rv
  inhibition at 20 µM: 0.6%

## Cc1noc(NS(=O)(=O)c2ccc(Nc3cc(-c4cc(Cl)ccc4OC(C)C)ncn3)cc2)c1C [Example 24, 4-[6-(5-Chloro-2-isopropoxy-phenyl)-pyrimidin-4-ylamino]-N-(3,4-dimethyl-isoxazol-5-yl)-benzenesulfonamide]
Human PLK1 kinase domain
  pIC50: 5.43
  inhibition at 10 µM: 80.7%
M. tuberculosis H37Rv
  inhibition at 20 µM: -20.4%

## Cc1noc(NS(=O)(=O)c2ccc(Nc3cc(-c4ccccc4Oc4ccccc4)ncn3)cc2)c1C [Example 4, N-(3,4-Dimethyl-isoxazol-5-yl)-4-[6-(2-phenoxy-phenyl)-pyrimidin-4-ylamino]-benzenesulfonamide]
Human PLK1 kinase domain
  inhibition at 10 µM: 52.7%
M. tuberculosis H37Rv
  inhibition at 20 µM: 39%
